Source: patent US11072602B2, “Antidiabetic heterocyclic compounds” (Merck Sharp & Dohme Corp., priority 2016, dated 2021)

Biological target: T1, human GPR40 (Homo sapiens, UniProt O14842)
T1 construct: expressed in transfected cells
Test: Inositol Phosphate Turnover (IP1) Assay
Assay type: cell-based
Conditions: HEK cells stably expressing human GPR40, 7500 cells per well, CisBio IP-One kit
Protocol: Human GPR40 stable cell-lines were generated in HEK cells. The expression plasmids were transfected using lipofectamine (Life Technologies) following manufacturer's instructions. Stable cell-lines were generated following drug selection and single cell cloning.
The assay was performed in 384-well format. HEK cells stably expressing human GPR40 were plated at 7500 cells per well in growth medium (DMEM/10% fetal calf serum). Cell plates were then incubated 16 hours at 37 degrees in a 5% CO2 incubator. Measurement of Inositol Phosphate Turnover (IP1) was performed using the CisBio IP-One kit (Part number 62IPAPEB). After the 16 hour incubation, the growth media was removed by centrifugation using the BlueWasher (AusWasher GUI Ver. v1.0.1.8) Protocol #21-“Light Dry” and 10 ul of stimulation buffer (prepared as described in the kit) was added to each well. In a separate plate, compounds were diluted in DMSO (200-fold over the final concentration in the assay well) and 50 nl was acoustically transferred to the appropriate well in the assay cell plate. The plates were then incubated for 60 minutes at 37 degrees in a 5% CO2 incubator. 10 ul of detection buffer (also prepared as described in the IP-One kit) was added to each well and the plates were incubated at room temperature for 60 minutes in the dark. The plates were then read in a Perkin Elmer EnVision or equivalent reader able to measure FRET. Fluorescent ratio of emission at 665 and 620 nm was then converted to IP1 concentration by back calculating from an IP1 standard curve prepared at the time of the assay. Data was normalized to % activity using a reference compound and EC50s determined using a standard 4-parameter fit.

T1 sequence (O14842 whole entry): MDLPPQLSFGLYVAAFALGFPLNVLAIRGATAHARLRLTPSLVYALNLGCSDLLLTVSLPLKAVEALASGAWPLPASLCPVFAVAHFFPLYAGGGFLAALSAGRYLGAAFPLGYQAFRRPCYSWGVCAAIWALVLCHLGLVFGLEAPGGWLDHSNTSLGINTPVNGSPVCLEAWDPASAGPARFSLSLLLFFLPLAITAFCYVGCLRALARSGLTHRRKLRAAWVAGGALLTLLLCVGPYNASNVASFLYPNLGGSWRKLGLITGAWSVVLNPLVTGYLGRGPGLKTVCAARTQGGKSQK

EC50 [nM]	SMILES
63.7	C[C@H](C(=O)O)[C@H](c1ccc2c(c1)OC(CC1CCN([C@H](C)c3cc(C(F)(F)F)ccc3C(F)(F)F)CC1)CC2)C1CC1 (mixture of isomers) [Example 9, (2S,3R)-3-((RS)-2-((1-((R)-1-(2,5-bis(trifluoromethyl)phenyl)ethyl)piperidin-4-yl)-methyl)chroman-7-yl)-3-cyclopropyl-2-methylpropanoic Acid]
44.1	CC(c1cc(F)ccc1C(F)(F)F)N1CC2CC1CC2C1CCc2ccc([C@H](C3CC3)[C@H](C)C(=O)O)cc2O1 (mixture of isomers) [Example 39, (2S,3R)-3-cyclopropyl-3-((R or S)-2-((R or S,R or S)-2-((RS)-1-(5-fluoro-2-(trifluoromethyl)-phenyl)ethyl)-2-azabicyclo-[2.2.1]heptan-5-yl)chroman-7-yl)-2-methylpropanoic acid]
8.72	C[C@H](C(=O)O)[C@H](c1ccc2c(c1)OC(CCN(C)Cc1cc(C(F)(F)F)ccc1C(F)(F)F)CC2)C1CC1 (mixture of isomers) [Example 41, (2S,3R)-3-(2-(2-((2,5-bis-(trifluoromethyl)benzyl)(methyl)amino)ethyl)chroman-7-yl)-3-cyclopropyl-2-methylpropanic acid]
22.3	C[C@H](C(=O)O)[C@H](c1ccc2c(c1)OC(CC1CCN([C@@H](C)c3cc(C(F)(F)F)ccc3C(F)(F)F)CC1)CC2)C1CC1 (mixture of isomers) [Example 12, (2S,3R)-3-((RS)-2-((1-((S)-1-(2,5-bis(trifluoro-methyl)phenyl)ethyl)piperi-din-4-yl)methyl)-chroman-7-yl)-3-cyclopropyl-2-methyl-propanoic acid]
45.6	C[C@H](C(=O)O)[C@H](c1ccc2c(c1)OC(C1[C@@H]3CC[C@H]1CN([C@H](C)c1cc(C(F)(F)F)ccc1C(F)(F)F)C3)CC2)C1CC1 (mixture of isomers) [Example 22, (2S,3R)-3-(2-((1R,5S)-3-((R)-1-(2,5-bis(trifluoromethyl)phenyl)ethyl)-3-azabicyclo[3.2.1]octan-8-yl)chroman-7-yl)-3-cyclopropyl-2-methylpropanoic Acid]
49.8	C[C@H](C(=O)O)[C@H](c1ccc2c(c1)OC(C1[C@@H]3CC[C@H]1CN([C@H](C)c1cc(C(F)(F)F)ccc1C(F)(F)F)C3)CC2)C1CC1 (mixture of isomers) [Example 23, (2S,3R)-3-(2-((1R,5S)-3-((R)-1-(2,5-bis(trifluoromethyl)phenyl)ethyl)-3-azabicyclo[3.2.1]octan-8-yl)chroman-7-yl)-3-cyclopropyl-2-methylpropanoic Acid]
11.2	C[C@H](C(=O)O)[C@H](c1ccc2c(c1)OC(C1[C@@H]3COC[C@H]1CN([C@@H](C)c1cc(F)ccc1C(F)(F)F)C3)CC2)C1CC1 (single isomer, unassigned) [Example 7]
11.2	C[C@H](C(=O)O)[C@H](c1ccc2c(c1)OC(C1[C@@H]3COC[C@H]1CN([C@@H](C)c1cc(F)ccc1C(F)(F)F)C3)CC2)C1CC1 (single isomer, unassigned) [Example 8]
29.3	C[C@H](C(=O)O)[C@H](c1ccc2c(c1)OC(CC1CCN([C@H](C)c3cc(C(F)(F)F)ccc3C(F)(F)F)CC1)CC2)C1CC1 (single isomer, unassigned) [Example 10, (2S,3R)-3-((R or S)-2-((1-((R)-1-(2,5-bis(trifluoromethyl)phenyl)ethyl)piperidin-4-yl)-methyl)chroman-7-yl)-3-cyclopropyl-2-methylpropanoic Acid]
14.1	C[C@H](C(=O)O)[C@H](c1ccc2c(c1)OC(CC1CCN([C@H](C)c3cc(C(F)(F)F)ccc3C(F)(F)F)CC1)CC2)C1CC1 (single isomer, unassigned) [Example 11, (2S,3R)-3-((S or R)-2-((1-((R)-1-(2,5-bis(trifluoromethyl)phenyl)ethyl)piperidin-4-yl)methyl)chroman-7-yl)-3-cyclopropyl-2-methylpropanoic Acid]
13.4	C[C@H](C(=O)O)[C@H](c1ccc2c(c1)OC(C1CC3CC1CN3[C@H](C)c1cc(F)ccc1C(F)(F)F)CC2)C1CC1 (single isomer, unassigned) [Example 20]
3.14	C[C@H](C(=O)O)[C@H](c1ccc2c(c1)OC(C1CC3CC1CN3[C@H](C)c1cc(F)ccc1C(F)(F)F)CC2)C1CC1 (single isomer, unassigned) [Example 21]
9.66	C[C@H](C(=O)O)[C@H](c1ccc2c(c1)OC(C1[C@@H]3CC[C@@H]1CN([C@@H](C)c1cc(C(F)(F)F)ccc1C(F)(F)F)C3)CC2)C1CC1 (single isomer, unassigned) [Example 24]
67.3	C[C@H](C(=O)O)[C@H](c1ccc2c(c1)OC(C1[C@@H]3CC[C@@H]1CN([C@@H](C)c1cc(C(F)(F)F)ccc1C(F)(F)F)C3)CC2)C1CC1 (single isomer, unassigned) [Example 25]
9.68	C[C@H](C(=O)O)[C@H](c1ccc2c(c1)OC(C1[C@@H]3CC[C@H]1CN([C@@H](C)c1cc(F)ccc1C(F)(F)F)C3)CC2)C1CC1 (single isomer, unassigned) [Example 26]
20.2	C[C@H](C(=O)O)[C@H](c1ccc2c(c1)OC(C1[C@@H]3CC[C@@H]1CN([C@@H](C)c1cc(F)ccc1C(F)(F)F)C3)CC2)C1CC1 (single isomer, unassigned) [Example 27, (2S,3R)-3-cyclopropyl-3-((2R or 2S)-2-((1R,5S)-3-((S)-1-(5-fluoro-2-(trifluoromethyl)phenyl)ethyl)-3-azabicyclo[3.2.1]-octan-8-yl)chroman-7-yl)-2-methylpropanoic acid]
28.7	C[C@H](C(=O)O)[C@H](c1ccc2c(c1)OC(C1[C@@H]3CC[C@@H]1CN([C@@H](C)c1cc(F)ccc1C(F)(F)F)C3)CC2)C1CC1 (single isomer, unassigned) [Example 28, (2S,3R)-3-cyclopropyl-3-((2R or 2S)-2-((1R,5S)-3-((S)-1-(5-fluoro-2-(trifluoromethyl)phenyl)ethyl)-3-azabicyclo[3.2.1]-octan-8-yl)chroman-7-yl)-2-methylpropanoic acid]
72.8	C[C@H](C(=O)O)[C@H](c1ccc2c(c1)OC(C1[C@@H]3CC[C@H]1CN([C@@H](C)c1cc(F)ccc1C(F)(F)F)C3)CC2)C1CC1 (single isomer, unassigned) [Example 29]
453	C[C@H](C(=O)O)[C@H](c1ccc2c(c1)OC(C1[C@@H]3CC[C@@H]1CN([C@@H](C)c1cc(F)ccc1C(F)(F)F)C3)CC2)C1CC1 (single isomer, unassigned) [Example 30, (2S,3R)-3-cyclopropyl-3-((2R or 2S)-2-((1R,5S)-3-((S)-1-(5-fluoro-2-(tri-fluoromethyl)phenyl)eth-yl)-3-azabicyclo[3.2.1]-octan-8-yl)chroman-7-yl)-2-methylpropanoic acid]
32.6	C[C@H](C(=O)O)[C@H](c1ccc2c(c1)OC(C1[C@@H]3CC[C@@H]1CN([C@@H](C)c1cc(F)ccc1C(F)(F)F)C3)CC2)C1CC1 (single isomer, unassigned) [Example 31, (2S,3R)-3-cyclopropyl-3-((2R or 2S)-2-((1R,5S)-3-((S)-1-(5-fluoro-2-(trifluoromethyl)phenyl)ethyl)-3-azabicyclo[3.2.1]-octan-8-yl)chroman-7-yl)-2-methylpropanoic acid]
12.3	CC(c1cc(Cl)ccc1C(F)(F)F)N1C[C@H]2CC1CC2C1CCc2ccc([C@H](C3CC3)[C@H](C)C(=O)O)cc2O1 (single isomer, unassigned) [Example 36, (2S,3R)-3-((S or R)-2-((R or S, R or S)-2-(1-(5-chloro-2-(trifluoromethyl)-phenyl)-ethyl)-2-azabicyclo[2.2.1]heptan-5-yl)chroman-7-yl)-3-cyclopropyl-2-methylpropanoic Acid]

SMILES	EC50 [nM]
C[C@H](C(=O)O)[C@H](c1ccc2c(c1)OC(C1CC3CCCC(C1)N3[C@H](C)c1cc(C(F)(F)F)ccc1C(F)(F)F)CC2)C1CC1 (mixture of isomers) [Example 32, (2S,3R)-3-((RS)-2-((1R,3RS,5S)-9-((R)-1-(2,5-bis(trifluoromethyl)phenyl)ethyl)-9-azabicyclo[3.3.1]nonan-3-yl)chroman-7-yl)-3-cyclopropyl-2-methylpropanoic Acid]	171
C[C@H](C(=O)O)[C@H](c1ccc2c(c1)OC(C1CC3CCCC(C1)N3[C@@H](C)c1cc(C(F)(F)F)ccc1C(F)(F)F)CC2)C1CC1 (mixture of isomers) [Example 33, (2S,3R)-3-((RS)-2-((1R,3RS,5S)-9-((S)-1-(2,5-bis(trifluoromethyl)-phenyl)ethyl)-9-aza-bicyclo[3.3.1]-nonan-3-yl)chroman-7-yl)-3-cyclopropyl-2-methyl-propanoic acid]	750
CC(C(=O)O)C(c1ccc2c(c1)OC(C1CC3CCCC(C1)N3C(C)c1cc(F)ccc1C(F)(F)F)CC2)C1CC1 (single isomer, unassigned) [Example 34]	29.4
CC(C(=O)O)C(c1ccc2c(c1)OC(C1CC3CCCC(C1)N3C(C)c1cc(F)ccc1C(F)(F)F)CC2)C1CC1 (single isomer, unassigned) [Example 35]	90.9
